The test has as its target T1, chimeric human H3 receptor (Homo sapiens, UniProt Q9Y5N1).
T1 construct: rat Galpha-i2 (Gnai2, rat); made in house; host or cells: Sf9 insect cells (baculovirus); P2 membranes
Put plainly: Chimeric human H3 receptor screening GTP binding assay (inhibition of histamine-stimulated GTP-gamma35S binding, Example 8). Format: biochemical. The essentials: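 Sf9 membranes co-expressing chimeric human H3 receptor and heterotrimeric G-protein (35 μg protein) incubated 60 min at room temperature with 4 μM compound, 1 μM histamine and 125 pM GTP-gamma35S in pH 7.4 buffer with 10 μM GDP. Filter-bound radioactivity, nonspecific (10 μM GTP-gammaS) subtracted, reported as % inhibition of histamine signal.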
Background: GTPγS is a poorly hydrolysed GTP analogue; its binding reports G protein activation.

The mark [1] stands for this setting: symbol ! in Ki, test compound 4 μM, 1 μM histamine, read-out: percent inhibition of agonist-induced GTP-gammaS binding to H3.
Where [2] appears, read: 1 h, assay described in Example 8, symbol "!" in column headed Ki, read-out: Ki ("!": percent inhibition of agonist-induced GTP-gammaS binding to H3).
Where [3] appears, read: 1 h, assay of Example 8, symbol "!" in column headed Ki, read-out: percent inhibition of agonist-induced GTP-gammaS binding to H3.

Like-named read-outs stand apart in the source and are kept apart here. Bounds are passed on as bounds.

T1 sequence (Q9Y5N1 with tags, fused parts or gaps): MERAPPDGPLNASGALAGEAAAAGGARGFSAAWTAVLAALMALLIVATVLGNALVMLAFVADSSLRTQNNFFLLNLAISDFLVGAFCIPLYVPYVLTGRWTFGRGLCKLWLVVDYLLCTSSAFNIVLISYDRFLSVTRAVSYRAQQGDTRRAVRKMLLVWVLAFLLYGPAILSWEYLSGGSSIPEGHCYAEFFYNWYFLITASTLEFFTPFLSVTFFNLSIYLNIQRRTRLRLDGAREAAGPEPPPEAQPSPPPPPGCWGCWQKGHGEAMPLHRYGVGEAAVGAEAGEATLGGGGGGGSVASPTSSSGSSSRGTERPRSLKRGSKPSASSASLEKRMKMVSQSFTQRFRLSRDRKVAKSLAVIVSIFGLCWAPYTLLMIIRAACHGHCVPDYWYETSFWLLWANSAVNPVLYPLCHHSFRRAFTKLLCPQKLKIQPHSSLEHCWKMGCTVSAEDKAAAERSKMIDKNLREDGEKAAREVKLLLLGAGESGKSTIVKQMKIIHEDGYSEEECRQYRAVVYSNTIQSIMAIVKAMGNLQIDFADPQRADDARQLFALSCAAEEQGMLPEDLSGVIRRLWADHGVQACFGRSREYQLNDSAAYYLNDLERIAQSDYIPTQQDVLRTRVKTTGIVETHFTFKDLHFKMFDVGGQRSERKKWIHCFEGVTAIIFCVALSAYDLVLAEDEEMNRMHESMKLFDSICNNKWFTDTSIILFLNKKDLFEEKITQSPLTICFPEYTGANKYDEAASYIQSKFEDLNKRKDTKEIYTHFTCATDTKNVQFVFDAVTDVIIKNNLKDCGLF

For `Cc1ccc(C(C)N2CCc3c(ncnc3N3CCN(C4CCC4)CC3)C2)cc1` (stereo not shown) [Compound 106, 4-(4-cyclobutylpiperazin-1-yl)-7-[1-(4-methylphenyl)ethyl]-5,6,7,8-tetrahydropyrido[3,4-d]pyrimidine], the inhibition at 4 µM under setting [1] was no less than 90%. As to `O=C(c1cc(Cl)ccc1Cl)N1CCc2cnc(N3CCN(C4CCC4)CC3)nc2CC1` [Compound 441, 2-(4-cyclobutylpiperazin-1-yl)-7-(2,5-dichlorobenzoyl)-6,7,8,9-tetrahydro-5H-pyrimido[4,5-d]azepine], the inhibition at 4 µM under setting [2] was no less than 90%. For `CCN1CCc2c(ncnc2N2CCN(C3CCC3)CC2)C1` [Compound 81, 4-(4-cyclobutylpiperazin-1-yl)-7-ethyl-5,6,7,8-tetrahydropyrido[3,4-d]pyrimidine], the inhibition at 4 µM under setting [1] was no less than 90%. With `c1nc2c(c(N3CCN(C4CCC4)CC3)n1)CCN(CC1CC1)C2` [Compound 89, 4-(4-cyclobutylpiperazin-1-yl)-7-(cyclopropylmethyl)-5,6,7,8-tetrahydropyrido[3,4-d]pyrimidine], the inhibition at 4 µM under setting [1] is no less than 90%. Turning to `O=C(Cc1ccc(Cl)cc1)N1CCc2cnc(N3CCN(C4CCC4)CC3)nc2CC1` [Compound 285, 7-[(4-chlorophenyl)acetyl]-2-(4-cyclobutylpiperazin-1-yl)-6,7,8,9-tetrahydro-5H-pyrimido[4,5-d]azepine], the inhibition at 4 µM under setting [3] is no less than 90%. As to `CSc1ccc(CC(=O)N2CCc3cnc(N4CCN(C5CCC5)CC4)nc3CC2)cc1` [Compound 519, 2-(4-cyclobutylpiperazin-1-yl)-7-{[4-(methylthio)phenyl]acetyl}-6,7,8,9-tetrahydro-5H-pyrimido[4,5-d]azepine], the inhibition at 4 µM under setting [2] is no less than 90%. As to `COc1cc(OC)cc(C(=O)N2CCc3cnc(N4CCN(C5CCC5)CC4)nc3CC2)c1` [Compound 381, 2-(4-cyclobutylpiperazin-1-yl)-7-(3,5-dimethoxybenzoyl)-6,7,8,9-tetrahydro-5H-pyrimido[4,5-d]azepine], under setting [2], the inhibition at 4 µM was no less than 90%. Consider `Cc1ncccc1C(=O)N1CCc2cnc(N3CCN(C4CCC4)CC3)nc2CC1` [Compound 202, 2-(4-cyclobutylpiperazin-1-yl)-7-[(2-methylpyridin-3-yl)carbonyl]-6,7,8,9-tetrahydro-5H-pyrimido[4,5-d]azepine], for which the inhibition at 4 µM under setting [3] is no less than 90%. Regarding `Fc1ccc(CN2CCc3c(ncnc3N3CCN(C4CCC4)CC3)C2)cc1` [Compound 68, 4-(4-cyclobutylpiperazin-1-yl)-7-(4-fluorobenzyl)-5,6,7,8-tetrahydropyrido[3,4-d]pyrimidine], the inhibition at 4 µM under setting [1] was no less than 90%. For the molecule `Clc1ccccc1CN1CCc2cnc(N3CCN(C4CCC4)CC3)nc2CC1` [Compound 265, 7-(2-chlorobenzyl)-2-(4-cyclobutylpiperazin-1-yl)-6,7,8,9-tetrahydro-5H-pyrimido[4,5-d]azepine], the inhibition at 4 µM under setting [3] was no less than 90%. For `Clc1ccc(CN2CCc3cnc(N4CCN(C5CCC5)CC4)nc3CC2)c(Cl)c1` [Compound 266, 2-(4-cyclobutylpiperazin-1-yl)-7-(2,4-dichlorobenzyl)-6,7,8,9-tetrahydro-5H-pyrimido[4,5-d]azepine], the inhibition at 4 µM under setting [3] was no less than 90%. The same measure, in the same setting: with `Cc1ccccc1C(=O)N1CCc2cnc(N3CCN(C4CCC4)CC3)nc2CC1` [Compound 189, 2-(4-cyclobutylpiperazin-1-yl)-7-(2-methylbenzoyl)-6,7,8,9-tetrahydro-5H-pyrimido[4,5-d]azepine] the figure was no less than 90%. Take `CCCC(=O)N1CCc2c(ncnc2N2CCN(C3CCC3)CC2)C1` [Compound 43, 7-butyryl-4-(4-cyclobutylpiperazin-1-yl)-5,6,7,8-tetrahydropyrido[3,4-d]pyrimidine]: the inhibition at 4 µM under setting [1] is no less than 90%. On the same count and under the same terms, with `CCCCC(C)N1CCc2c(ncnc2N2CCN(C3CCC3)CC2)C1` (stereo not shown) [Compound 119, 4-(4-cyclobutylpiperazin-1-yl)-7-(1-methylpentyl)-5,6,7,8-tetrahydropyrido[3,4-d]pyrimidine] the figure was no less than 90%; with `CCC(C)C(=O)N1CCc2c(ncnc2N2CCN(C3CCC3)CC2)C1` (stereo not shown) [Compound 60, 4-(4-cyclobutylpiperazin-1-yl)-7-(2-methylbutanoyl)-5,6,7,8-tetrahydropyrido[3,4-d]pyrimidine], no less than 90%.

With `COc1ccccc1C(=O)N1CCc2cnc(N3CCN(C4CCC4)CC3)nc2CC1` [Compound 192, 2-(4-cyclobutylpiperazin-1-yl)-7-(2-methoxybenzoyl)-6,7,8,9-tetrahydro-5H-pyrimido[4,5-d]azepine], the inhibition at 4 µM under setting [3] was no less than 90%.

Turning to `Cc1ccc(CN2CCc3c(ncnc3N3CCN(C4CCC4)CC3)C2)cc1` [Compound 70, 4-(4-cyclobutylpiperazin-1-yl)-7-(4-methylbenzyl)-5,6,7,8-tetrahydropyrido[3,4-d]pyrimidine], the inhibition at 4 µM under setting [1] was no less than 90%.

In the case of `O=C(c1ccc(Cl)nc1)N1CCc2cnc(N3CCN(C4CCC4)CC3)nc2CC1` [Compound 478, 7-[(6-chloropyridin-3-yl)carbonyl]-2-(4-cyclobutylpiperazin-1-yl)-6,7,8,9-tetrahydro-5H-pyrimido[4,5-d]azepine], the inhibition at 4 µM under setting [2] is no less than 90%. The same measure, in the same setting: the value for `O=C(c1csc(-c2cccnc2)n1)N1CCc2cnc(N3CCN(C4CCC4)CC3)nc2CC1` [Compound 529, 2-(4-cyclobutylpiperazin-1-yl)-7-[(2-pyridin-3-yl-1,3-thiazol-4-yl)carbonyl]-6,7,8,9-tetrahydro-5H-pyrimido[4,5-d]azepine] was no less than 90%; that for `COc1cc(Cl)ccc1C(=O)N1CCc2cnc(N3CCN(C4CCC4)CC3)nc2CC1` [Compound 421, 7-(4-chloro-2-methoxybenzoyl)-2-(4-cyclobutylpiperazin-1-yl)-6,7,8,9-tetrahydro-5H-pyrimido[4,5-d]azepine] was no less than 90%. On the same count and under the same terms, the value for `Cc1nnsc1C(=O)N1CCc2cnc(N3CCN(C4CCC4)CC3)nc2CC1` [Compound 528, 2-(4-cyclobutylpiperazin-1-yl)-7-[(4-methyl-1,2,3-thiadiazol-5-yl)carbonyl]-6,7,8,9-tetrahydro-5H-pyrimido[4,5-d]azepine] was no less than 90%. In the case of `CCn1cncc1CN1CCc2cnc(N3CCN(C4CCC4)CC3)nc2CC1` [Compound 262, 2-(4-cyclobutylpiperazin-1-yl)-7-[(1-ethyl-1H-imidazol-5-yl)methyl]-6,7,8,9-tetrahydro-5H-pyrimido[4,5-d]azepine], under setting [3], the inhibition at 4 µM is no less than 90%.

Consider `CCCCC(=O)N1CCc2cnc(N3CCN(C4CCC4)CC3)nc2CC1` [Compound 207, 2-(4-cyclobutylpiperazin-1-yl)-7-pentanoyl-6,7,8,9-tetrahydro-5H-pyrimido[4,5-d]azepine], for which the inhibition at 4 µM under setting [3] is no less than 90%. For the molecule `O=C(c1ccc(F)cc1)N1CCc2cnc(N3CCN(C4CCC4)CC3)nc2CC1` [Compound 10, [2-(4-Cyclobutyl-piperazin-1-yl)-5,6,8,9-tetrahydro-pyrimido[4.5-d]azepin-7-yl]-(4-fluoro-phenyl)-methanone], where the note is “test compound 4 μM, 1 μM histamine, read-out: percent inhibition of agonist-induced GTP-gammaS binding to H3”, the inhibition at 4 µM was no less than 90%.

For the molecule `Cc1ccc(CN2CCc3nc(N4CCN(C5CCC5)CC4)ncc3C2)cc1` [Compound 615, 2-(4-cyclobutylpiperazin-1-yl)-6-(4-methylbenzyl)-5,6,7,8-tetrahydropyrido[4,3-d]pyrimidine], under setting [1], the inhibition at 4 µM is no less than 90%.

Broadly, the inhibition is the percentage by which the read-out fell short of the control.

Values taken from patent publication US20080051387A1, “TETRAHYDROPYRIDO[3,4-D]PYRIMIDINES AND RELATED ANALOGUES” (priority 2006, published 2008).
